In patent US20100068197A1, “PHARMACEUTICAL COMPOUNDS AS INHIBITORS OF CELL PROLIFERATION AND THE USE THEREOF” (Myriad Pharmaceuticals, Inc., priority 2008, published 2010):

What was measured:
[1] = system: P388/ADR cell lines (overexpress the multidrug resistance pump MDR-1); test: Multidrug resistant cell assay, cell viability by ATP-lite; format: cell-based, murine
Description: Cytotoxicity of compounds in multidrug resistant cells can be determined by administering compounds to cell lines that overexpress the multidrug resistance pump MDR-1 and determining the viability of the cell lines. P388/ADR cell lines are known to overexpress the multidrug resistance pump MDR-1 (also known as P-glycoprotein-1; Pgp-1).
P388/ADR cell lines are obtained from American Type Culture Collection (Manassas, Va.) and maintained in RPMI-1640 media supplemented with 10% FCS, 10 units/mL penicillin and streptomycin, 2 mM Glutamax and 1 mM sodium pyruvate (Invitrogen Corporation, Carlsbad, Calif.). For compound testing, cells are plated in 96 well dishes at a concentration of 1.5×10^4 cells/well. Cells are allowed to adhere to the plate overnight and then incubated with compounds at final concentrations ranging from 0.13 nM to 10 μM for 72 hours. Cell viability is then assessed using the ATP-lite reagent (Perkin Elmer, Foster City, Calif.). Plates are read on a Wallac Topcount luminescence reader (Perkin Elmer, Foster City, Calif.) and the results graphed in Prism software (Graphpad Software, Inc., San Diego, Calif.). Non-linear regression with variable slope analysis is performed to obtain IC50 concentration values.

[2] = system: P388 murine leukemia cell line; test: P388 cytotoxicity, cellular viability by ATP-Lite; format: cell-based; conditions: compound concentration required to inhibit growth by 50%, intracellular ATP
Method: A P388 murine leukemia cell line was obtained from NCI, Frederick, Md. P388 cells were cultured in RPMI-1640 supplemented with 10% fetal bovine serum, 2 mM Glutamax, 1 mM sodium pyruvate, 0.1 mM non-essential amino acids and 10 mM HEPES. Cells were grown at 37° C. in a humidified 5% CO2 atmosphere. Exponentially growing P388 cells were plated at 5,000 cells/well in a 96-well flat-bottomed microtiter plate (Corning, Costar #3595). […] Cellular viability was determined 72 hours later by measuring intracellular ATP with ATP-Lite assay system. The effect of compounds on cell viability was calculated by comparing the ATP levels of cells exposed to test compound with those of cells exposed to DMSO. A semi-log plot of relative ATP levels versus compound concentration was used to calculate the compound concentration required to inhibit growth by 50% (IC50). Data was analyzed by Prism software (GraphPad; San Diego, Calif.) by fitting it to a sigmoidal dose response curve.

[3] = Mus musculus, 72 h, multidrug resistant cells overexpressing MDR-1
[4] = multidrug resistant cells overexpressing MDR-1, 72 hours

Compound	IC50 [1, 3]	IC50 [1, 4]	IC50 ([2]; Mus musculus, P388, 72 h)	IC50 ([2]; 72 hours)
COCCOCCOCCOc1nc(N(C)c2ccc(OC)cc2)c2ccccc2n1 [Example 2, (2-{2-[2-(2-Methoxy-ethoxy)-ethoxy]-ethoxy}-quinazolin-4-yl)-(4-methoxy-phenyl)-methyl-amine]	74 nM	–	65 nM	–
COc1ccc(N(C)c2nc(OCCN3CCN(CCO)CC3)nc3ccccc23)cc1 [Example 5, 2-[4-(2-{4-[(4-Methoxy-phenyl)-methyl-amino]-quinazolin-2-yloxy}-ethyl)-piperazin-1-yl]-ethanol]	–	–	3600 nM	–
CCOCCOCCOCCOc1nc(N(C)c2ccc(OC)cc2)c2ccccc2n1 [Example 7, (2-{2-[2-(2-Ethoxy-ethoxy)-ethoxy]-ethoxy}-quinazolin-4-yl)-(4-methoxy-phenyl)-methyl-amine]	520 nM	–	1400 nM	–
COc1ccc(N(C)c2nc(NCCOP(=O)(O)OC(C)(C)C)nc3ccccc23)cc1 [Example 12, Phosphoric acid tent-butyl ester 2-{4-[(4-methoxy-phenyl)-methyl-amino]-quinazolin-2-ylamino}-ethyl ester]	7800 nM	–	3100 nM	–
COc1ccc(N(C)c2nc(NCCOC(=O)CN)nc3ccccc23)cc1 [Example 13, Amino-acetic acid 2-{4-[(4-methoxy-phenyl)-methyl-amino]-quinazolin-2-ylamino}-ethyl ester]	18 nM	–	15 nM	–
COc1ccc(N(C)c2nc(NCCNC(=O)OC(C)(C)C)nc3ccc(OC)cc23)cc1 [Example 16, (2-{6-Methoxy-4-[(4-methoxy-phenyl)-methyl-amino]-quinazolin-2-ylamino}-ethyl)-carbamic acid tent-butyl ester]	3400 nM	2000 nM	4000 nM	2400 nM
COc1ccc(N(C)c2nc(NCCNC(=O)OCc3ccccc3)nc3ccc(OC)cc23)cc1 [Example 17, (2-{6-Methoxy-4-[(4-methoxy-phenyl)-methyl-amino]-quinazolin-2-ylamino}-ethyl)-carbamic acid benzyl ester]	8500 nM	–	4500 nM	3000 nM
COc1ccc(N(C)c2nc(NCCNC(C)=O)nc3ccc(C)cc23)cc1 [Example 18, N-(2-{4-[(4-Methoxy-phenyl)-methyl-amino]-6-methyl-quinazolin-2-ylamino}-ethyl)-acetamide]	2500 nM	1400 nM	–	–
COc1ccc(N(C)c2nc(NCCNC(N)=O)nc3ccc(OC)cc23)cc1 [Example 22, (2-{6-Methoxy-4-[(4-methoxy-phenyl)-methyl-amino]-quinazolin-2-ylamino}-ethyl)-urea]	–	–	9300 nM	–
COc1ccc(N(C)c2nc(N[C@@H](C)[C@H](O)c3ccccc3)nc3ccccc23)cc1 [Example 24, (1R,2S)-2-{4-[(4-Methoxy-phenyl)-methyl-amino]-quinazolin-2-ylamino}-1-phenyl-propan-1-ol]	1700 nM	–	1600 nM	–
COc1ccc(N(C)c2nc(N[C@@H](CO)Cc3ccccc3)nc3ccccc23)cc1 [Example 25, (R)-2-{4-[(4-Methoxy-phenyl)-methyl-amino]-quinazolin-2-ylamino}-3-phenyl-propan-1-ol]	1800 nM	–	1800 nM	–
COC(=O)NCCNc1nc(N(C)c2ccc(OC)cc2)c2cc(OC)ccc2n1 [Example 26, (2-{6-Methoxy-4-[(4-methoxy-phenyl)-methyl-amino]-quinazolin-2-ylamino}-ethyl)-carbamic acid methyl ester]	7400 nM	–	7200 nM	–
COc1ccc(N(C)c2nc(NCCOC(=O)[C@H](Cc3c[nH]c4ccccc34)NC(=O)OCc3ccccc3)nc3ccccc23)cc1 [Example 29, (S)-2-Benzyloxycarbonylamino-3-(1H-indol-3-yl)-propionic acid 2-{4-[(4-methoxy-phenyl)-methyl-amino]-quinazolin-2-ylamino}-ethyl ester]	40 nM	–	32 nM	–
COc1ccc(N(C)c2nc(N(CCNC(C)=O)C(C)=O)nc3ccccc23)cc1 [Example 39, N-[2-(Acetyl-{4-[(4-methoxy-phenyl)-methyl-amino]-quinazolin-2-yl}-amino)-ethyl]-acetamide]	–	–	3800 nM	–

Further compounds by falling IC50 [1, 3], results first:

IC50 [1, 3]	IC50 [1, 4]	Compound	IC50 ([2]; Mus musculus, P388, 72 h)	IC50 ([2]; 72 hours)
9400 nM	–	COc1ccc(N(C)c2nc(NCCNC(C)=O)nc3ccccc23)cc1OC [Example 20, N-(2-{4-[(3,4-Dimethoxy-phenyl)-methyl-amino]-quinazolin-2-ylamino}-ethyl)-acetamide]	1700 nM	1100 nM
3500 nM	–	CCOC(=O)C1C=CC(C)n2c(=O)n(CCNc3nc(N(C)c4ccc(OC)cc4)c4ccccc4n3)c(=O)n21 (centres unmarked) [Example 6, 2-(2-{4-[(4-Methoxy-phenyl)-methyl-amino]-quinazolin-2-ylamino}-ethyl)-8-methyl-1,3-dioxo-2,3,5,8-tetrahydro-1H-[1,2,4]triazolo[1,2-a]pyridazine-5-carboxylic acid ethyl ester]	3000 nM	–
3300 nM	–	COc1ccc(N(C)c2nc(N[C@@H](CO)c3ccccc3)nc3ccccc23)cc1 [Example 23, (R)-2-{4-[(4-Methoxy-phenyl)-methyl-amino]-quinazolin-2-ylamino}-2-phenyl-ethanol]	4600 nM	–
3200 nM	–	COc1ccc(N(C)c2nc(N3CCNCC3)nc3ccccc23)cc1 [Example 9, (4-Methoxy-phenyl)-methyl-(2-piperazin-1-yl-quinazolin-4-yl)-amine]	2600 nM	–
2000 nM	–	COc1ccc(N(C)c2nc(NCCOCCOCCN)nc3ccccc23)cc1 [Example 3, N^2-{2-[2-(2-Amino-ethoxy)-ethoxy]-ethyl}-N^4-(4-methoxy-phenyl)-N^4-methyl-quinazoline-2,4-diamine]	1400 nM	–
580 nM	–	COCCOCCOc1nc(N(C)c2ccc(OC)cc2)c2ccccc2n1 [Example 1, {2-[2-(2-Methoxy-ethoxy)-ethoxy]-quinazolin-4-yl}-(4-methoxy-phenyl)-methyl-amine]	490 nM	–
530 nM	–	COc1ccc(N(C)c2nc(NCCNCCNCCN)nc3ccccc23)cc1 [Example 4, N^2-{2-[2-(2-Amino-ethylamino)-ethylamino]-ethyl}-N^4-(4-methoxy-phenyl)-N^4-methyl-quinazoline-2,4-diamine]	550 nM	–
380 nM	–	COc1ccc(N(C)c2nc(NCCOP(=O)(OC(C)(C)C)OC(C)(C)C)nc3ccccc23)cc1 [Example 10, Phosphoric acid di-tent-butyl ester 2-{4-[(4-methoxy-phenyl)-methyl-amino]-quinazolin-2-ylamino}-ethyl ester]	–	–
340 nM	350 nM	COc1ccc(N(C)c2nc(NCCNC(=O)OC(C)(C)C)nc3ccccc23)cc1OC [Example 14, (2-{4-[(3,4-Dimethoxy-phenyl)-methyl-amino]-quinazolin-2-ylamino}-ethyl)-carbamic acid tert-butyl ester]	300 nM	340 nM
220 nM	–	COc1ccc(N(C)c2nc(NCCOC(=O)[C@@H](N)CCSC)nc3ccccc23)cc1 [Example 27, (S)-2-Amino-4-methylsulfanyl-butyric acid 2-{4-[(4-methoxy-phenyl)-methyl-amino]-quinazolin-2-ylamino}-ethyl ester]	220 nM	–
190 nM	150 nM	COC(=O)NCCNc1nc(N(C)c2ccc(OC)c(OC)c2)c2ccccc2n1 [Example 21, (2-{4-[(3,4-Dimethoxy-phenyl)-methyl-amino]-quinazolin-2-ylamino}-ethyl)-carbamic acid methyl ester]	120 nM	64 nM
170 nM	–	COc1ccc(N(C)c2nc(N[C@@H](C)C(=O)OC(C)(C)C)nc3ccccc23)cc1 [Example 28, (S)-2-{4-[(4-Methoxy-phenyl)-methyl-amino]-quinazolin-2-ylamino}-propionic acid tert-butyl ester]	150 nM	–
33 nM	22 nM	COc1ccc(N(C)c2nc(NCCOC(=O)[C@H](N)CCCCN)nc3ccccc23)cc1 [Example 15, (R)-2,6-Diamino-hexanoic acid 2-{4-[(4-methoxy-phenyl)-methyl-amino]-quinazolin-2-ylamino}-ethyl ester]	11 nM	15 nM
30 nM	–	COCCOCCOC(=O)OCCNc1nc(N(C)c2ccc(OC)cc2)c2ccccc2n1 [Example 8, Carbonic acid 2-(2-methoxy-ethoxy)-ethyl ester 2-{4-[(4-methoxy-phenyl)-methyl-amino]-quinazolin-2-ylamino}-ethyl ester]	25 nM	–
